Assay results: patent US8012994B1 (priority 2006, dated 2011)
Where a name gives a salt, the structure may show the parent alone.

Legend:
Assay type in all cases: in vivo, human
[1] = test system: blind mute and deaf children; assay: galanthamine hydrobromide injections in blind mute and deaf children; conditions: one of 3 patients, 7-9 years old; 0.1 ml of 0.5% solution per year of life, 15-20 injections
Procedure: 25 years ago, applicant conducted a study of a small group of blind mute and deaf children (3 patients) at the age of 7-9 years old. There was an attempt to restore their visual function using galanthamine hydrobromide solution at the dosage of 0.1 ml of 0.5% of galanthamine hydrobromide for each year of life. The course of treatment included 15-20 injections. […] This finding gave an impetus to conduct additional research into the restoration of auditory function using acetylholinesterase inhibitors in conjunction with laser stimulation.

[2] = test system: sensorineural hearing loss of vascular genesis; assay: Treatment for sensorineural hearing loss of vascular genesis
Procedure: A group of 24 patients at the age of 50-65 were treated for sensorineural hearing loss. […] After a 7-10 days break, the course was repeated. […] The hearing in one ear improved by 5-10 dB.
So the second intake of the drug at night was withdrawn. […] After that, they refused to continue the treatment for the lack of desired effect.
Three courses of treatment were conducted. […] Then, the patients terminated the treatment because of its high cost.

meningiomas = assay: Treatment of patients with meningiomas; conditions: 1.25 mg once a day, three courses
Procedure: Applicant observed two patients with meningiomas. Their tumors were of a considerable size. These patients had undergone surgery, which was conducted in two stages, and was followed by chemo- and radiation therapy. These patients were practically blind, and had bilateral optic atrophy, their hearing function was impaired by 30-40 dB, they were not able to differentiate words in noisy environments. They also manifested convulsive attacks up to 15 times a day. They went through the anticonvulsant therapy, after which their convulsions occurred only for 2 times a month. […] In a month and a half, the treatment was conducted according to the following pattern. 1.25 mg once a day for 7 days, followed by a 5 day break. […] This course was repeated in 3 months. The third course was conducted in 6 months. […] These improvements satisfied the patients and no further treatment was conducted.

[3] = test system: neurinomas of cerebellopontine angle; assay: Treatment for neurinomas of cerebellopontine angle
Excerpt: Neurinomas of the cerebropontine angle—7 patients (2 patients and 5 people from 35 to 45 years of age).
In all 7 patients, the tumor was diagnosed late and was of a considerable size. In spite of the fact that all of them had consulted doctors, they were correctly diagnosed only after the appearance of the symptoms of damage to the facial nerve, ataxy, and complete hearing loss. Some of the patients underwent neurosurgery, including partial removal of the tumor followed by chemo- and radio-therapy. The patients manifested paralysis of the facial nerve, optic atrophy, and tinnitus, dizziness and paresis or hemisyndrom of different degrees.
After the operations, some of the patients had severe complications. […] Disorders of differentiation of words, especially in noisy environments. Some patients manifested convulsions and severe headaches. The encephalogram registered readiness for convulsions. Such patients initially underwent anticonvulsant therapy with CARBAMAZEPINE® 100 mg two times a day.
The course of treatment was repeated every 3-6 months. […] The patients started to differentiate shapes of objects, which helped them to orient in the surroundings and to come to the clinic without a guide.

[4] = test system: sensorineural hearing loss caused by hyperbilirubinemia; assay: Treatment for sensorineural hearing loss caused by hyperbilirubinemia
Procedure: Research was conducted on four patients (age 2 to 5 years) who had hyperbilirubinemia soon after birth. The hearing impairment was diagnosed when the children were examined and treated for hyperkinetic cerebral palsy. The children were not able to walk.
After the treatment, their hearing improved by 10-15 dB.

[5] = test system: sensorineural hearing loss caused by birth injury; assay: Treatment for sensorineural hearing loss caused by birth injury
Procedure: Research was conducted with 4 patients whose hearing loss was caused by birth injury. Two patients were twin boys […] and two patients […].
The twins had sensorineural hearing loss in both ears. […] The course was repeated in 1.5 months, and the third course was conducted in 3 months.
Treatment was then conducted according to the following pattern.
The courses were repeated every three months for three years. They received 8 and 10 courses respectively.

[6] = test system: hearing loss caused by toxoplasmosis; assay: Treatment for neuropathy of CN VIII: hearing loss caused by toxoplasmosis; conditions: patient
Procedure: This research involved observation of neuropathy in the vestibulocochlear nerve of 17 patients.
In two patients, the hearing loss was caused by toxoplasmosis. In one patient, inborn toxoplasmosis was diagnosed. The other patient developed toxoplasmosis from an infected cat.
The second course was conducted in three months. After four courses of treatment, their hearing improved by 25 dB.
After 5 courses of treatment, their hearing improved by 30 dB.

[7] = test system: sensorineural hearing loss caused by Usher syndrome; assay: Treatment for sensorineural hearing loss caused by Usher syndrome
Procedure: A group of 4 children of 5-6 years old with Usher's syndrome were studied. They manifested profound hearing impairment of 65-75 dB alongside progressive loss of vision due to retinitis pigmentosa. These children had been previously refused treatment on the account of their disease being genetic.
In 1.5 months there was an improvement in hearing by 5 dB. […] The third course was conducted in three months according to the same pattern. After that the hearing improved by 10-15 dB.
PIRIBEDIL® is a vasodilative drug used for treating vision and hearing disorders. Applicant observed that the hearing was improved by 5-10 dB. The patients were recommended to have a follow up treatment every 6 months according to the same pattern.

minimal hearing loss = assay: Treatment for minimal hearing loss
Excerpt: A group of patients consisting of 56 children was selected. 29 children—4 years of age and 27 children—5-6 years of age.
Minimal hearing disorders were discovered when these children were investigated for speech development delay.
The course of treatment was repeated in three months. Depending on the degree of the impairment and its cause, the patients received from 3 to 8 courses of treatment.

[8] = 18 patients, 2.5 mg a day with vasodilating treatment, three courses
[9] = 7 patients, courses repeated every 3-6 months
[10] = after three courses, 0.625 mg once a day during 25 days
[11] = twin boys, three courses, 2.5 mg twice a day for 20 days

With COc1ccc2c3c1O[C@H]1C[C@@H](O)C=C[C@@]31CCN(C)C2 [galanthamine hydrobromide] the auditory function [1] was “minor improvement of auditory function”.
For COc1cc2c(cc1OC)C(=O)C(CC1CCN(Cc3ccccc3)CC1)C2 (stereo not drawn) [ARICEPT®, donepezil hydrochloride], the hearing ([2]; 6 patients, night intake withdrawn, after the fourth course) was “slight improvement of hearing”, the side effects ([2]; 6 patients, 2.5 mg twice a day) was “irritability and sleep disturbances” and the tinnitus ([2]; 18 of 24 patients 50-65 years, after the first course, 2.5 mg twice a day during 25 days) was “decrease of tinnitus”. The dizziness [2, 8] was “decrease of dizziness”, the hearing [2, 8] was “improved hearing in one ear” and the “hearing in one ear improved by” value ([2]; after the first course, 2.5 mg twice a day during 25 days) was 5-10 dB. The hearing (meningiomas; 2 patients, hearing impaired by 30-40 dB) was “improvement of hearing”, the speech (meningiomas; 2 patients, with anticonvulsant therapy) was “increased legibility of speech” and the vision (meningiomas; 2 practically blind patients) was “clear differentiation of the source of light”. The tinnitus [3, 9] was “decrease of tinnitus”, the visual function [3, 9] was “improvement in their visual function” and the “effect of further courses” value ([3]; after 5-6 courses of treatment) was “no further improvement”. For the same molecule, the side effects ([3]; dosage increased to 5 mg twice a day, with anticonvulsant therapy) was “headaches and sleep disturbances”, the side effects ([3]; dosage of 2.5 mg a day) was “didn't produce side effects” and the concentration [4, 10] was “concentration improved”. For the same molecule, the hyperkinesias [4, 10] was “some decrease of hyperkinesias”, the hearing ([4]; four patients 2-5 years, after three courses, 0.625 mg once a day during 25 days) was “no improvement in hearing” and the hyperkinesia and walking ([4]; patient with profound hearing loss, after ten courses) was “Hyperkinesia decreased and the patient began to walk”. For the same molecule, the hearing threshold ([4]; patient, threshold over 95 dB before, after ten courses) was 90 dB, the “hearing improved by” value ([4]; two children, 10 courses, 0.625 mg twice a day for 25 days, three months break) was 10-15 dB and the “hearing improved by, in one ear” value ([5]; each twin, further three courses 2.5 mg twice a day for 25 days, with PERIBEDIL 10 mg twice a day from the 4th course) was 20-25 dB. The “hearing improved by” value ([5]; person, sensorineural hearing loss of 65 dB, 2.5 mg once a day for twenty days, 10 courses over three years) was 10 dB, the “hearing improved by, in one ear” value ([5]; twin boys of 10 years, three courses, 2.5 mg twice a day for 20 days, hydrochloride) was 10 dB and the fatiguability [5, 11] was “decreased fatiguability”. The speech [5, 11] was “speech became more understandable”, the “hearing improved by” value ([6]; 0.625 mg once a day during 20 days, after four courses) was 25 dB and the “hearing improved by” value ([6]; 2.5 mg once a day for 20 days, after 5 courses) was 30 dB. For the same molecule, the improvement in hearing ([7]; 4 children 5-6 years, loss 65-75 dB, 1.25 mg 2 times a day for 20 days, in 1.5 months) was 5 dB, the visual function ([7]; after the third course) was “improved visual function” and the “hearing improved by” value ([7]; after the third course, 1.25 mg two times a day) was 10-15 dB. For the same molecule, the “hearing improved by” value ([7]; two patients, after six months, with PIRIBEDIL 5 mg two times a day) was 5-10 dB, the higher psychic functions (minimal hearing loss; 56 children 4-6 years) was “improvement of higher psychic functions” and the “most noticeable improvement of phonemic hearing and speech functions observed” value (minimal hearing loss; 56 children 4-6 years, 1.25 mg once a day during 20 days) was “between the 3d and the 5th courses”. For the same molecule, the “hearing improved by” value (minimal hearing loss; children with sensorineural hearing loss, 1.25 mg once a day during 20 days, 3 to 8 courses) was 5-10 dB and the “children who manifested the increase in the intellect” value (minimal hearing loss; starting from the 4th course, preliminary results) was 85%.
